pKd, pKi: −log10 of the molar value. Positions of bridges follow the written chain, without caps; N, C: chain ends. Residues, ends and D or L forms follow the SMILES beside them. No end group written: not given here.
Tests used:
[1] = biological target: hSIRP-alpha (Homo sapiens, UniProt P78324); assay: Soluble peptide inhibition of hSIRP-alpha binding to polypeptide beads
Source text: (§1) Synthesis of the three designs and Scrambled-peptides with or without biotin attached via either an aminohexanoic acid linker (C6) or a PEG linker, enabled functional testing of binding to soluble hSIRP-alpha as well as inhibition of nanobead phagocytosis. […] The 10-aa FG-hairpin was synthesized without attachment of biotin for use as a soluble inhibitor of hSIRP-alpha binding to polypeptide beads. […] While conformational constraints the minimal FG-hairpin combined with the likely lack of a stable structure underscores the utility of at least some backbone flexibility.

[2] = tested on: THP-1 cells; assay: Phagocytosis assay of peptide-coated opsonized nanobeads in THP-1 cell line; assay type: cell-based; conditions: opsonized beads
Protocol: FIG. 3A illustrates a two color experiment in which nanoparticles (or cells) are mixed and injected into the same mouse after labeling with or without the peptide with distinct fluorescent red dye (PKH26) or far-red (DiD). 50 μl of blood was periodically sampled from the eyes, and flow cytometry analysis of the decay in nanoparticle (or cell) numbers was used to calculate the time-dependent ‘persistence ratio’ in each mouse. Colors were labeled as 1 and 2. FIG. 3B is a graph illustrating an experiment where 160 nm polystyrene beads coated with streptavidin were bound to biotinylated versions of synthetic FG-peptide, or else negative controls of either scrambled peptide or PEG. Beads were opsonized with anti-streptavidin and then injected. n=6 mice. FIG. 3C is a graph illustrating the inverse correlation between the in vivo ratio of beads with or without peptide at 35 min and the inhibition of phagocytosis in vitro at 45 min for 160 nm beads. FIG. 3D is a graph illustrating macrophage SIRPa1 tyrosine phosphorylation upon contact with FG-peptide bound to opsonized beads and phagocytosed by THP-1 cells. From cell lysates, SIRP-alpha was immunoprecipitated and immunoblotted for quantitation of phosphotyrosine per total SIRP-alpha (n=3). Avg.±SEM for all results.
FIG. 4 illustrates binding and phagocytosis inhibition of peptides in relation to human-SIRP-alpha. […]

[3] = biological target: soluble hSIRP-alpha (Homo sapiens, UniProt P78324); assay: Binding of polypeptide-coated beads to soluble hSIRP-alpha by flow cytometry
Sequence of soluble hSIRP-alpha (P78324 31-373 limits assumed): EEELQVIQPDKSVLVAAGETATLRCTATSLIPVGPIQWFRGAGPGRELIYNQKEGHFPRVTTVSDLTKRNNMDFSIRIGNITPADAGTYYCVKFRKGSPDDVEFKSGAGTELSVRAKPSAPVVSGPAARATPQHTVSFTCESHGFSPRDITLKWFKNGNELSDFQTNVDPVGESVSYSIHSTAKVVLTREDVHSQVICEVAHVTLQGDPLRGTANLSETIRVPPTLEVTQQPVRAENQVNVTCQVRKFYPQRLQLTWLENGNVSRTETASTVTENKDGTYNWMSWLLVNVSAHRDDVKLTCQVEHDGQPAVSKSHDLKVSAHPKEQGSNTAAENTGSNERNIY
Source text: FIG. 4 illustrates binding and phagocytosis inhibition of peptides in relation to human-SIRP-alpha. Affinity of polypeptides coated beads binding to soluble hSIRP-alpha based on flow cytometry. Saturation binding fit gave the indicated dissociation constant, Kd.
as §1

[4] = tested on: spleen macrophages; conditions: NSG mice, near-infrared particles
Source text: To assess whether the particles had been taken up by spleen macrophages in NSG mice, tissue sections were immunostained for macrophages and imaged by fluorescence microscopy.

[5] = Two-color persistence of opsonized nanobeads in circulation of NSG mice; assay type: in vivo; conditions: 160 nm opsonized streptavidin polystyrene beads
Protocol: FIG. 3A illustrates a two color experiment in which nanoparticles (or cells) are mixed and injected into the same mouse after labeling with or without the peptide with distinct fluorescent red dye (PKH26) or far-red (DiD). 50 μl of blood was periodically sampled from the eyes, and flow cytometry analysis of the decay in nanoparticle (or cell) numbers was used to calculate the time-dependent ‘persistence ratio’ in each mouse. Colors were labeled as 1 and 2. FIG. 3B is a graph illustrating an experiment where 160 nm polystyrene beads coated with streptavidin were bound to biotinylated versions of synthetic FG-peptide, or else negative controls of either scrambled peptide or PEG. Beads were opsonized with anti-streptavidin and then injected. n=6 mice. […] Avg.±SEM for all results.

Sequence of hSIRP-alpha (P78324 31-373 limits assumed): as above

`CC(C)C[C@H](NC(=O)[C@H](CCC(=O)O)NC(=O)[C@@H](NC(=O)[C@@H](NC(=O)[C@@H](N)CCC(=O)O)C(C)C)[C@@H](C)O)C(=O)N[C@H](C(=O)N[C@@H](CCCNC(=N)N)C(=O)N[C@@H](CCC(=O)O)C(=O)NCC(=O)N[C@@H](CCC(=O)O)C(=O)O)[C@@H](C)O` [FG-hairpin, EVTELTREGE] (H-EVTELTREGE-OH; N-terminus and C-terminus assumed) showed a pKi [1] of 6.70 to 7.00.

With “CEVTELTREGEC (disulfide 1-12 (inferred)) [FG-SS-peptide, 12-aa peptide with Cys substitution intended to disulfide-stabilize the β-hairpin]” the “inhibition of nanobead phagocytosis” value [2] was “no statistically significant inhibition of phagocytosis” and the “affinity / binding to hSIRP-alpha (in words)” value ([3]; peptide-coated beads, soluble hSIRP-alpha) was “no significant affinity”.

For GNYTCEVTELTREGETIIELK [FG-peptide], the “particle uptake, whole organ imaging” value [4] was “reducing but not eliminating uptake”, the circulation of nanoparticles [5] was “prolong the circulation of nanoparticles” and the pKd ([3]; saturation binding fit, biotinylated peptide on streptavidin beads, C6 or PEG linker, read-out: affinity for SIRP-alpha (Kd)) was 6.80 to 6.96.

Source: patent publication US9566347B2, “Peptides and methods using same” (The Trustees of the University of Pennsylvania, priority 2011, dated 2017)
